For experiment [1], the system named is cerebellar granule neurons (CGN). Nature of the experiment: Neurite outgrowth of primary cerebellar granule neurons in culture. The settings on record: CGN from 7 day old rats, peptide 3-81 μg/ml, 24 hours. The format is cell-based, rat. As to the method: Dissociated cerebellar neurons were isolated from 7 day old rats. Cerebellum was isolated from the brain in ice cold modified Krebs Ringer solution, cleared of blood vessels, roughly homogenised by chopping and then trypsinised. The dissociated cells were washed in the presence of DNAse 1 and soybean trypsin inhibitor. Postnatal hippocampal neurons or cerebellar granule neurons (CGN) were plated at a density of 10,000 cells/cm^2 on uncoated 8-well permanox Lab-Tek chamber slides in Neurobasal medium supplemented with 0.4% (w/v) bovine serum albumin (BSA; Sigma-Aldrich), 2% (v/v) B27 Neurobasal supplement, 1% (v/v) glutamax, 100 U/ml penicillin, 100 μg/ml streptomycin and 2% 1 M HEPES (all from Gibco, BRL). After 24 hours, the neurons were fixed with 4% (v/v) formaldehyde for 20 minutes and thereafter immunostained using primary rabbit antibodies against GAP-43 and Alexa Fluor secondary goat anti-rabbit Ig antibodies. Images of at least 200 neurons for each group in each individual experiment were obtained systematically by computer assisted fluorescence microscopy as previously described (Rønn et al., 2000). Briefly, a Nikon Diaphot inverted microscope with a Nikon Plan 20× objective (Nikon, Tokyo, Japan) coupled to a video camera (Grundig Electronics, Germany) was used for recordings. A software package Prima developed at the Protein Laboratory (Copenhagen, Denmark) was used to make a stereologically based determination of neurite length (Rønn et al., 2000).
CGN prepared as described above were treated with different concentrations (3-81 μg/ml) of peptides NGF-C2, NGF-D, NGF-E, NGF-C1, NGF-EE, BDNF-E or BDNF-EE.

The target in another experiment is TrkC (Homo sapiens, UniProt Q16288). The experiment in a line: Surface Plasmon Resonance binding to immobilized TrkC. The conditions noted are these: SPR, 25° C., HBS-EP buffer pH 7.4, receptor immobilized on CM4 chip. As for the experimental part: The TrkA, TrkB and TrkC receptors and p75^NTR were immobilized on a sensor chip, CM4, using an amine-coupling kit as follows: the chip was activated by 20 μl activation solution, N-hydroxysuccinimide, (NHS) and N-ethyl-N′-(3-[…])-carbodiimide (EDC), the protein was immobilized using 30 μl of a mixture of 4 μl (0.5 μg/ml) protein in 50 μl 10 mM sodium acetate buffer (pH 4.0); and the chip was blocked by 35 μl blocking solution (ethanolamine-HCl). The receptor surface was regenerated between ligand injections with 15 μl 2 mM NaCl or 10 mM glycine-HCl, pH 2.5. In the present experiments a flow rate of 5 μl/min was used.
Sequence of TrkC (Q16288 32-839, species assumed): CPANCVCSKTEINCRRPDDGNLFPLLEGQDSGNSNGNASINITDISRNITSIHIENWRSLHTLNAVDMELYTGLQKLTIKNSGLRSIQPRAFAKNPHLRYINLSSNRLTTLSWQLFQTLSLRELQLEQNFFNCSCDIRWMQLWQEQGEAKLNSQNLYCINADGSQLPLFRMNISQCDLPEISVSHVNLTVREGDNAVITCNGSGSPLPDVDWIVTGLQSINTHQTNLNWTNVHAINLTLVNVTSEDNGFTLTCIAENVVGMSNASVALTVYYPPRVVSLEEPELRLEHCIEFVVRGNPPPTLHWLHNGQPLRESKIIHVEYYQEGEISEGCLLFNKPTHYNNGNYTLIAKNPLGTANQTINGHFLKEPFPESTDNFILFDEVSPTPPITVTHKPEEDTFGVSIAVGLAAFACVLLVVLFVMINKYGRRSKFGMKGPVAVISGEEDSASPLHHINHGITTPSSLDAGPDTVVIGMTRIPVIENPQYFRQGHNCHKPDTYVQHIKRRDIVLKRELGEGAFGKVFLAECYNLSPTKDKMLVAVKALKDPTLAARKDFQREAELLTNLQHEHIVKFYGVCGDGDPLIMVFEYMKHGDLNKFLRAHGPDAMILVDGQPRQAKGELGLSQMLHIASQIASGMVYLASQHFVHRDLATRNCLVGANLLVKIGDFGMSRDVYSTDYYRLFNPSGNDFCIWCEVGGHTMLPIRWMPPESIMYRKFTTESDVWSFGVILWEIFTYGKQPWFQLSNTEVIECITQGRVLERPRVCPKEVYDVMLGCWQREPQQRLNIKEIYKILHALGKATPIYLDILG
The curve corresponding to the difference between binding to the Trk receptors or the […] receptor and a blank chip was used for analysis.

Another experiment deals with focal brain injury. The experiment in a line: Traumatic brain injury model (focal cryo-lesion of right fronto-parietal cortex), immunohistochemistry. It is filed as in vivo, rat. The conditions noted are these: lesioned rats, 10 mg/kg/injection subcutaneously on day (−1), 1 and 3. As to the method: A focal brain injury on the right fronto-parietal cortex was made by applying a piece of dry-ice (−78° C.) directly onto the skull for 30 seconds in mice and 60 seconds in rats, as previously described in details (Penkowa et al., 2003).
Histochemistry and immunohistochemistry were performed on sections cut from organs taken from fixated animals. Rats and mice were deeply anesthetized with Brietal and flushed by cardiac perfusion with saline containing heparine (0.9% NaCl, 3 ml/L 5000 IU heparine) for 2 minutes followed by fixation with Zamboni's fixative (pH 7.4) for 4-8 minutes depending on the size of the animal. For immunohistochemical investigation, brain were dissected and postfixed in Zamboni's for 2-3 hours, dehydraded in graded alcohol followed by xylol and subsequently embedded in paraffin before being cut in 3 μm frontal sections throughout the entire area of the cryo lesion. […]
Following treatment as described above, sections were incubated overnight at 5° C. with one of the following primary antibodies: polyclonal rabbit anti-cow glial fibrillary acidic protein (GFAP) 1:250 (a marker for astrocytes; DakoCytomation); monoclonal mouse anti-8-hydroxydeoxyguanosine (8-OH-dG) diluted 1:100 in goat serum (a marker for DNA oxidation; Chemicon, Temacula, Calif., USA). The primary antibody was detected with biotynilated secondary antibodies, incubated with streptavidin-biotin-peroxidase complex for 30 min. […]
In vivo experiments—A focal brain injury on the right fronto-parietal cortex was made by applying a piece of dry-ice (−78° C.) directly onto the skull for 30 seconds in mice and 60 seconds in rats, as previously described in details (Penkowa et al., 2003). […] The primary antibody was detected with biotynilated secondary antibodies, incubated with streptavidin-biotin-peroxidase complex for 30 min. […]

For H-CVLSRKAVRRA-OH [NGF-C2], the “neurite outgrowth from primary neurons in culture” value (“neurite outgrowth” for short) in experiment [1] is listed as “significantly stimulate neurite outgrowth”.
Turning to H-RGIDSKHWNSY-OH [NGF-E], in experiment [1], the “neurite outgrowth” value is recorded as “significantly stimulate neurite outgrowth”.
For orientation: Kd means a measure of binding affinity in units of concentration. For the substance “BDNF: Brain-derived neurotrophic factor, member of the neurotrophin family, reference ligand in SPR”, binding in the experiment with TrkC was characterised by a dissociation constant (Kd) of 14 nM.
In the case of H-SYVRALTMDSKKRIGWR-OH [BDNF-EE], the “neurite outgrowth” value in experiment [1] is “significantly stimulate neurite outgrowth”. In the experiment with focal brain injury, the “cortical astrocytes as reflected by immunostaining for GFAP” value was “activation of cortical astrocytes”, the “microglia activation as reflected by binding of tomato lectin” value is recorded as “inhibition of microglia activation” and the “oxidative stress as reflected by immunostaining for 8-hydroxydeoxyguanosine” value was “inhibition of oxidative stress”.
Take “NGF-D: NGF-derived peptide, amino acids 2-14 of SEQ ID NO: 1 (YETKCRDPNPVDSG); lacks the hydrophobic residue of motif I (listed as Homo sapiens)”: in experiment [1], the “neurite outgrowth” value was “does not have neuritogenic activity”.
As to “RIDTACV (listed as Homo sapiens) [NGF-C1, NGF-derived peptide, motif I]”, the “neurite outgrowth” value in experiment [1] is given as “significantly stimulate neurite outgrowth”.
With H-RGIDKRHWNSQ-OH [BDNF-E], in experiment [1], the “neurite outgrowth” value was “significantly stimulate neurite outgrowth”.
Still for that read-out and setting: the value for H-TFVKALTMDGKQAAWR-OH [NGF-EE] was “significantly stimulate neurite outgrowth”.

The values are drawn from patent publication US8008259B2, “Neurotrophin-derived peptide sequences” (Copenhagen University, Techtrans Unit, priority 2005, dated 2011).
